Reference: patent US5101059A, “Amino acid protecting groups” (Research Corporation Technologies, Inc., priority 1989, dated 1992)

Assays:
Assay type in all cases: physicochemical
[1] = Base deblocking of R-Fmoc-aniline by various amines; details: room temperature
Protocol: 2. General Procedure for Studying the Base Deblocking of the Urethanes R-Fmoc-aniline (R=TMS, DMPS, DPMS, DT-TMS, TIPS): A solution of urethane (0.05 mmol) in a sample of redistilled base (5 mmol, 100 eq.) was allowed to stand at room temperature. The reaction was monitored periodically by TLC with an eluant consisting of Skelly B--CH2 Cl2 (1:1). No reaction occurred according to the TLC test for urethanes having R=TIPS in the case of any of the bases tested after 24 hours.

[2] = Deblocking of R-Fmoc-aniline by fluoride ion; details: tetra-n-butylammonium chloride 3.0 eq., KF dihydrate 4.1 eq., acetonitrile, room temperature
Protocol: 3. General Procedure for Studying the Deblocking of Urethanes R-Fmoc-aniline (R=TMS, DMPS, DPMS, TIPS, DT-TMS) by Reaction with Fluoride Ion: To a solution of urethane (0.0513 mmol) in 0.7 mL of acetonitrile was added 45 mg (0.154 mmol, 3.0 eq.) of tetra-n-butyl-ammonium chloride and 20 mg (0.213 mmol, 4.1 eq.) of potassium fluoride dihydrate. The mixture was stirred at room temperature, the reaction being monitored by TLC with an eluant consisting of Skelly B--CH2 Cl2 (1:1).

[3] = Deblocking of R-Fmoc-aniline by trifluoroacetic acid; details: room temperature
Text: 1. General Procedure for Studying the stability of R-Fmoc-analine (R=TMS, DMPS, DPMS, DT-TMS, TIPS) in Trifluoroacetic Acid: To a solution of urethane (0.026 mmol) in […].) of trifluoroacetic acid. The mixture was stirred at room temperature and the course of the reaction was monitored by TLC with an eluant consisting of Skelly B--dichloromethane (1:1) to note the time needed for complete deblocking of the urethanes.

[4] = Stability of substituted Fmoc-aniline to catalytic hydrogenation; details: palladium on charcoal, hydrogen 1 atm, 20 hours
Protocol: 1. Deblocking of 2,7-Bistrimethyl-silyl)-9-fluorenylmethyl Carbanilate: To a solution of 0.2 g BTS-Fmoc-aniline in 15 mL of 100% ethanol and 15 mL of EtOAc was added 20 mg of 10% palladium on charcoal at 0° C. The heterogeneous mixture was stirred under a hydrogen atmosphere (1 atm) for 20 hours. The catalyst was filtered and rinsed with EtOAc (2×5 mL). The combined filtrate was washed with sat'd NH4 Cl (2×20 mL), water (20 mL), and dried over anhydrous MgSO4. After evaporating the solvent in vacuo, the residue (0.14 g) was recrystallized from 95% ethanol to afford 0.11 g (78.0%) of 2,7-bis(trimethylsilyl)-9-methylfluorene as white needles, m.p. 106.5°-108° C., identified by mixture melting point, IR, and NMR spectral comparison with an authentic sample obtained as described above.
2. Stability of 9-Trimethylsilyl-9-fluorenylmethyl Carbanilate Towards Catalytic Hydrogenation: To a mixture of 0.15 g of TMS-Fmoc-analine and 0.15 g of BTS-Fmoc-analine in 20 mL of ethyl acetate and 30 mL of 100% ethanol was added 30 mg of […] palladium on charcoal. The mixture was magnetically stirred at room temperature under a hydrogen atmosphere (1 atm) for 20 hours. The catalyst was removed by filtration and rinsed with EtOAc (2×5 mL). […] Recrystallization of the former from 95% ethanol gave 78.3 mg (74.1%) of the pure silane, m.p. 107°-108.5° C. […]

[5] = Base deblocking of 9-xanthenylmethoxycarbonyl-L-phenylalanine; details: room temperature
Protocol: A. Base Deblocking of 9-Xanthenylmethoxycarbonyl-L-phenylalanine: 1. In DBU Solution: To a solution of 13.08 mg of Xmoc-Phe-Oh in 0.5 mL of DMF was added 0.5 mL of 1,8-diazabicyclo[5,4,0]-undec-7-ene (DBU, 100 eq.). The mixture was stirred at room temperature. The reaction was monitored by TLC with an eluant consisting of CHCl3 --CH3 OH--CH3 CO2 H (9:1:0.1). Deblocking was complete after 36 hours. 2. In TBD Solution: To a solution of 7.25 mg of Xmoc-Phe-OH in 0.1 mL of pyridine and 0.1 mL of DMF was added 50 mg (20 eq.) of 1,5,9-triazabicyclo[4,4,0]dec-5-ene (TBD). The mixture was stirred at room temperature and monitored by TLC with an eluant consisting of CHCl3 --CH3 OH--CH3 CO2 H (9:1:0.1). Deblocking was complete after 4.5 hours.

[6] = Stability of 9-xanthenylmethyl carbanilate towards catalytic hydrogenolysis; details: 5% Pd/C and palladium acetate, 40 psi hydrogen, 24 hours
Protocol: 5. Stability of 9-Xanthenylmethyl Carbanilate Towards Catalytic Hydrogenolysis: To a solution of 300 mg of Xmoc-aniline in 30 mL of EtOAc and 10 mL of 100% EtOH was added 30 mg of 5% palladium on charcoal and 30 mg of palladium acetate. The mixture was shaken under hydrogen at a pressure of 40 psi in a Parr apparatus for 24 hours. […] 178°-181° C., the ^1 H NMR and IR spectra of which matched that of an authentic sample.

[7] = Solubility of TMS-Fmoc and dichloro-Xmoc derivatives versus Fmoc analogs; details: in CH2Cl2
Protocol: This latter property is particularly important when peptide synthesis is carried out in solution.

[8] = Base deblocking of substituted urethanes (U-PCA) by various amines; details: dichloromethane, room temperature
Text: 1. General Procedure for Studying the Base Deblocking of the Urethanes Fmoc-PCA, BTS-Fmoc-PCA, DT-Fmoc-PCA, and TMS-Fmoc-PCA: A mixture of urethane (0.05 mmol) in a solution prepared from an equal volume of base (2.5 mmol, 50 eq.) and dichloromethane was stirred at room temperature. The course of the reaction was monitored by TLC with an eluant consisting of Skelly B--ether (3:1).

[9] = Stability of substituted Fmoc-PCA in acetic acid; details: glacial acetic acid 10 eq., CH2Cl2, room temperature, 48 hours
Protocol: 2. […] The mixture was stirred at room temperature for 48 hours. […] The mixture was washed with half sat'd NaHCO3 (2×10 mL) and water (10 mL). […] 161°-163° C., the IR and ^1 H NMR spectra of which matched that of an authentic sample.
3. Stability of 9-Trimethylsilyl-9-[…] p-Chlorocarbanilate in Acetic Acid: To a solution of 0.37 g of TMS-Fmoc-PCA in 10 mL of CH2 Cl2 was added 0.5 mL (10 eq.) of glacial acetic acid. The mixture was stirred at room temperature. […] The mixture was washed with half sat'd NaHCO3 (2×10 mL) and H2 O (10 mL). […] 124°-126° C., the ^1 H NMR and IR spectra of which matched that of an authentic sample.

[10] = Base deblocking and stability of 9-xanthenylmethyl and 9,10-dihydro-9-anthracenylmethyl derivatives; details: room temperature
Protocol: 1. Deblocking of Xmoc-PCA in 1,5,9-Triazabicyclo[4,4,0]dec-5-ene Solution: To a solution of 7.90 mg (0.0216 mmol) of Xmoc-PCA in 0.6 mL of pyridine was added 0.15 g (1.078 mmol 50 eq.) of 1,5,9-triazabicyclo[4,4,0]dec-5-ene (TBD). The mixture was stirred at room temperature and monitored by TLC with an eluant consisting of Skelly B--EtOAc (3:1). Complete deblocking had occurred after 25 minutes.
2. Base Deblocking of 9-Xanthenylmethyl Phenylacetate: a. In Piperdine Solution: To a solution of 13.39 mg of 9-XM-phenylacetate in 1.6 mL of DMF was added 0.4 mL (100 eq.) of piperidine. The mixture was stirred at room temperature. […] In DBU Solution: To a solution of 6.36 mg of 9-XM-phenylacetate in 0.9 mL of DMF was added 0.3 mL of 1,8-diazabicyclo[5,4,0]-undec-7-ene (DBU) (100 eq.). The mixture was stirred at room temperature. […] In TBD Solution: To a solution of 7.91 mg of 9-XM-phenylacetate in 0.3 mL of pyridine was added 100 mg (30 eq.) of 1,5,9-triazabicyclo[4,4,0]dec-5-ene. The mixture was stirred at room temperature.
1. General Procedure for Studying the Stabilities of DHAmoc-PCA, Xmoc-PCA, and DC-Xmoc-PCA in Piperidine Solution To a solution of urethane (0.0294 mmol) in 1.2 mL of DMF was added 0.3 mL (2.94 mmol, 100 eq.) of piperidine. The mixture was stirred at room temperature and monitored by TLC with an eluant consisting of Skelly B--EtOAc (3:1). Evidence for initiation of the deblocking required 2 minutes for DC-Xmoc-PCA, 3.5 hours for Xmoc-PCA, and 7 hours for DHAmoc-PCA.
2. General Procedure for Studying the Deblocking of Xmoc-PCA and DHAmoc-PCA in DBU Solution: To a solution of urethane (0.0324 mmol) in 0.5 mL of DMF was added 0.5 mL (3.24 mmol, 100 eq.) of 1,8-diazabicyclo[5,4,0]undec-7-ene. The mixture was stirred at room temperature and monitored by TLC with the eluant consisting of Skelly B--EtOAc (3:1). The time needed to complete the deblocking was 3.5 hours for Xmoc-PCA, and 6 hours for DHAmoc-PCA.

[11] = Stability of xanthenylmethyl and dihydroanthracenylmethyl derivatives in trifluoroacetic acid; details: TFA 40 eq., deuterated chloroform, room temperature, 3 days
Protocol: 3. Stability of Xanthenylmethyl p-Chlorocarbanilate in Trifluoroacetic Acid: To a solution of 35.61 mg of Xmoc-PCA in 0.2 mL of deuterated chloroform was added 0.3 mL (40 eq.) of trifluoroacetic acid. The mixture was transferred to an NMR tube and allowed to stand at room temperature. The reaction was monitored by NMR spectroscopy (Varian A-60A, 60 MHz) and TLC with an eluant consisting of Skelly B--ethyl acetate (4:1). No change was noted after 3 days.
4. Stability of 9-Xanthenylmethyl Phenylacetate in Trifluoroacetic Acid: To a solution of 21.4 mg of 9-XM phenylacetate in 0.2 mL of deuterated chloroform was added 0.2 mL (40 eq.) of trifluoroacetic acid. The mixture was transferred to an NMR tube and let stand at room temperature. The reaction was monitored by NMR (Varian A-60A, 60 MHz) spectroscopy and TLC analysis with an eluant consisting of Skelly B--ether (2:1). No change was noted after 3 days.
1. Stability of 9,10-Dihydro-9-anthracenylmethyl p-Chlorocarbanilate in Trifluoroacetic Acid: To a solution of 23.61 mg of DHAmoc-PCA in 0.2 mL of deuterated chloroform was added 0.2 mL (40 eq.) of trifluoroacetic acid. The mixture was transferred to an NMR tube and allowed to stand at room temperature. The reaction was monitored by NMR spectroscopy (Varian A-60A, 60 MHz) and TLC with an eluant consisting of Skelly B--EtOAc (3:1). No change was noted after 4 days.

C[Si](C)(C)C1(COC(=O)Nc2ccccc2)c2ccccc2-c2ccccc21 [TMS-Fmoc-aniline, 9-Trimethylsilyl-9-fluorenylmethyl Carbanilate]
Time for Complete Deblocking ([1]; morpholine 100 eq.): 180 min
Time for Complete Scavenging of Dibenzofulvene ([1]; morpholine 100 eq.): 240 min
Time for Complete Deblocking ([1]; piperidine 100 eq.): 100 min
Time for Complete Scavenging of Dibenzofulvene ([1]; piperidine 100 eq.): 300 min
Time for Complete Deblocking ([1]; t-butylamine 100 eq.): 720 min
Time for Complete Deblocking by Fluoride Ion [2]: 5 min
Time for Complete Deblocking by Trifluoroacetic Acid [3]: 5 h
recovered urethane ([4]; room temperature): 93.3%

O=C(N[C@@H](Cc1ccccc1)C(=O)O)OCC1c2ccccc2Oc2ccccc21 [Xmoc-Phe-OH, 9-Xanthenylmethoxycarbonyl-L-phenylalanine]
Time for Complete Deblocking ([5]; DBU 100 eq., DMF): 36 h
Time for Complete Deblocking ([5]; TBD 20 eq., pyridine and DMF): 4.5 h

O=C(Nc1ccccc1)OCC1c2ccccc2Oc2ccccc21 [Xmoc-aniline, 9-Xanthenylmethyl Carbanilate]
recovered urethane [6]: 94.3%
stability towards catalytic hydrogenolysis (TLC) [6]: remained intact

C[Si](C)(C)C1(COC(=O)Nc2ccc(Cl)cc2)c2ccccc2-c2ccccc21 [TMS-Fmoc-PCA, 9-Trimethylsilyl-9-fluorenylmethyl p-Chlorocarbanilate]
solubility relative to that of the Fmoc analog [7]: 16 times
soluble to the extent of (solubility) [7]: 53 g/100 mL
Time for Complete Deblocking ([8]; ethanolamine 50 eq.): 150 min
Time for Complete Scavenging of Dibenzofulvene Analogs ([8]; morpholine 50 eq.): 16.5 hr
Time for Complete Deblocking ([8]; morpholine 50 eq., significant aminodibenzofulvene type adduct formed): 780 min
Time for Complete Scavenging of Dibenzofulvene Analogs ([8]; piperidine 50 eq.): 195 min
Time for Complete Deblocking ([8]; piperidine 50 eq., significant aminodibenzofulvene type adduct formed): 129 min
Time for Complete Deblocking ([8]; t-butylamine 50 eq.): > 2900 min
recovered urethane [9]: 97.5%
stability in acetic acid (TLC) [9]: no change

O=C(Cc1ccccc1)OCC1c2ccccc2Oc2ccccc21 [9-XM-phenylacetate, 9-Xanthenylmethyl Phenylacetate]
Time for Complete Deblocking ([10]; DBU 100 eq., DMF): ≤ 90 min
Time for Complete Deblocking ([10]; TBD 30 eq., pyridine): ≤ 27 min
stability in piperidine solution (TLC) ([10]; piperidine 100 eq., DMF, 2 days): no change
stability in trifluoroacetic acid (NMR, TLC) [11]: No change

C[Si](C)(C)c1ccc2c(c1)C(COC(=O)Nc1ccccc1)c1cc([Si](C)(C)C)ccc1-2 [BTS-Fmoc-aniline, 2,7-Bis(trimethylsilyl)-9-fluorenylmethyl Carbanilate]
product of catalytic hydrogenation (deblocking) [4]: 2,7-bis(trimethylsilyl)-9-methylfluorene
